PMC6984126, “Ficus deltoidea extract down-regulates protein tyrosine phosphatase 1B expression in a rat model of type 2 diabetes mellitus: a new insight into its antidiabetic mechanism” (Journal of Nutritional Science, 2020)
Marks after values point to notes of the source that are not given here. One block for each compound: values may come before it.

Experiments:
[1] = system: glucose 6-phosphatase (G6Pase) mRNA; assay: Hepatic gene expression by quantitative real-time PCR: G6Pase; conditions: MET 150 mg/kg
Procedure: (§3) Total RNA was isolated from rat livers using an Rneasy Mini Kit according to the manufacturer's protocol (Qiagen). First-strand cDNA synthesis from 1 µg total RNA was done employing a reverse transcriptase kit and oligo(dT) (Thermo Scientific). PTP1B, phosphoenolpyruvate carboxykinase (PEPCK), glucose 6-phosphatase (G6Pase), GLUT2 (Slc2a2) and insulin receptor (INR) target genes were amplified by quantitative real-time-PCR using specific primers (Supplementary Table S1). cDNA was added to a Quantifast SYBR Green qPCR Master Mix (Qiagen) containing 30 pg/ml of each primer. […] The β-actin gene was amplified in the same reaction as a reference gene to normalise data. Relative gene expression was calculated using the Livak & Schmittgen method([42]).

[2] = system: streptozotocin–nicotinamide-induced type 2 diabetic rats; assay: Pancreatic oxidative stress biomarkers in STZ–NA diabetic rats; assay type: in vivo, Wistar rats; conditions: MET 150 mg/kg
Procedure: (§1) NA was dissolved in normal saline.
(§2) At the end of the 28th day, blood samples were withdrawn from the retro-orbital venous plexus under light ether anaesthesia into two sampling tubes, one containing Na-EDTA at day 28 post-medication for the estimation of Hb([22]). The second blood sample was centrifuged at 3500 rpm for 15 min to separate sera for the estimation of insulin level([23]). Other biochemical parameters such as alanine transaminase and aspartate transaminase activities in serum were measured([24]). Serum levels of total bilirubin([25]), total protein([26]), TAG([27]), total cholesterol([28]), HDL-cholesterol([29]) and LDL-cholesterol([30]) were measured using commercially available kits (Quimica Clinica). Preparation of pancreatic homogenate was done according to Mansour et al.([31]). The activities of superoxide dismutase (SOD), glutathione peroxidase (GPx) and catalase (CAT) in hepatic and pancreatic tissues were estimated([32]–[34]), respectively. Reduced glutathione (GSH)([35]), lipid peroxidation products were estimated by determining malondialdehyde (MDA) content in the hepatic and pancreatic tissue([36]) and GLUT2 was determined using commercial diagnostic kits (Chema Diagnostica)([37]).

[3] = system: streptozotocin–nicotinamide-induced type 2 diabetic rats; assay: Fasting blood glucose, insulin and Hb in STZ–NA diabetic rats; assay type: in vivo, Wistar rats; conditions: MET 150 mg/kg orally; 4 weeks
Procedure: as §1, §2

PTP1B mRNA = assay: Hepatic gene expression by quantitative real-time PCR: PTP1B; conditions: liver mRNA; MET 150 mg/kg
Procedure: as §3

GLUT2 = GLUT2 protein levels in liver and pancreas of diabetic rats; assay type: in vivo, Wistar rats; conditions: MET 150 mg/kg
Procedure: as §1, §2

[4] = system: insulin receptor (INR) mRNA; assay: Hepatic gene expression by quantitative real-time PCR: insulin receptor; conditions: MET 150 mg/kg
Procedure: as §3

[5] = system: phosphoenolpyruvate carboxykinase (PEPCK) mRNA; assay: Hepatic gene expression by quantitative real-time PCR: PEPCK; conditions: MET 150 mg/kg
Procedure: as §3

[6] = system: streptozotocin–nicotinamide-induced type 2 diabetic rats; assay: Serum hepatic markers, bilirubin and total protein in STZ–NA diabetic rats; assay type: in vivo, Wistar rats; conditions: MET 150 mg/kg orally, 4 weeks
Procedure: as §1, §2

GLUT2 gene (Slc2a2) mRNA = assay: Hepatic gene expression by quantitative real-time PCR: Slc2a2; conditions: liver mRNA; MET 150 mg/kg
Procedure: as §3

- melting point: 308 to 309 °C
Structure (SMILES): CC1(C)CC[C@]2(C)CC[C@]3(C)C(=C[C@H](O)C4[C@@]5(C)CC[C@H](O)[C@@](C)(C(=O)O)C5CC[C@]43C)C2C1 (stereo partly drawn) [Compound F3, 3β,11β-dihydroxyolean-12-en-23-oic acid]

Structure (SMILES): CN(C)C(=N)N=C(N)N [MET, metformin]
- Expression of G6Pase in the liver [1]: decreased expression
- Effect on MDA level in the pancreas of diabetic rats [2]: did not significantly affect
- Increase in pancreatic GPx compared with diabetic control rats [2]: 63%
- Increase in pancreatic GSH content [2]: 46%
- Hb [3]: 135† g/l
- PTP1B expression level, % of the levels in the diabetic group (PTP1B mRNA): approximately 75%
- GLUT2 in the liver compared with the diabetic control (GLUT2): significantly increased
- GLUT2 in the pancreas compared with the diabetic control (GLUT2): significantly increased
- Effect of STZ on hepatic insulin receptor mRNA levels [4]: reversed
- Expression of PEPCK in the liver [5]: decreased expression
- Total bilirubin [6]: 4† mg/l
- Total protein [6]: 114* g/l
- Slc2a2 expression, % of the normal level (GLUT2 gene (Slc2a2) mRNA): 92%
